We go through one compound from US9522928B2, “Mannosylated compounds useful for the prevention and the treatment of infectious diseases” (UNIVERSITE DE STRASBOURG, priority 2011, dated 2016).

Molecules are shown by their SMILES. Entries after “also recorded” stand apart in the source; their conditions may differ.

As a reminder, the Kd is the free concentration of one partner at which half of the binding sites on the other are occupied at equilibrium, for simple one-to-one binding.

The target of one series is T1, DC-SIGN CRD (Homo sapiens, UniProt Q9NNX6).
T1 construct: human DC-SIGN (Lys62-Ala404, from R§D Systems); purchased R&D Systems ('R§D Systems' [sic])
T1 sequence (Q9NNX6 62-404): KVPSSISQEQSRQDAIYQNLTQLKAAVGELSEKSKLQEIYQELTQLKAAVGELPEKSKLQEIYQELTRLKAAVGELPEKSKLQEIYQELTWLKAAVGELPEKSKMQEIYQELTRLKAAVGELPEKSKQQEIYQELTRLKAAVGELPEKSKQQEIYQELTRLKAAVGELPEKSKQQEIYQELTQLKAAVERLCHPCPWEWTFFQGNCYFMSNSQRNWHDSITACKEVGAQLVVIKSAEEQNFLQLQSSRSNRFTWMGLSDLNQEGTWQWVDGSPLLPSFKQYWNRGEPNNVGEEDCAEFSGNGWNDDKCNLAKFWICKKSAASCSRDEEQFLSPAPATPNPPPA
The experiment in a line: Surface plasmon resonance (SPR) binding to immobilised DC-SIGN CRD. The note with it: Kd=koff/kon. The procedure:
SPR experiments were performed using a Biacore 3000. […] Biosensor assays were performed with HEPES-buffered saline (10 mM HEPES, 150 mM sodium chloride, pH 7.4) containing 0.005% surfactant P20 and 5 mM CaCl2 as a running buffer. All binding experiments were carried out at 25° C. with a constant flow rate of 20 μl/min. The different compounds dissolved in the running buffer (0.39 to 50 μM) were injected for 3 min, followed by a dissociation phase of 3 min. The sensor chip surface was regenerated after each experiment by injecting 10 μL of EDTA 0.5 M pH 8.0. A simple channel activated by EDC/NHS and deactivated with ethanolamine was used as control. The kinetic parameters were calculated using the BlAeval 4.1 software. Analysis was performed using the simple Langmuir binding model with separate ka/kd (kon/koff). The specific binding profiles were obtained after subtracting the response signal from the control channel and from blank-buffer injection. The fitting to each model was judged by the chi square value and randomness of residue distribution compared to the theoretical model (Langmuir binding 1:1).
The binding affinity of mannoside derivatives for the carbohydrate recognition domain (CRD) of DC-SIGN was assessed by surface plasmon resonance (SPR).
A CM5 sensor chip was functionalized with the DC-SIGN CRD, and increasing concentrations of the various compounds, mannan as a positive control and octaethyleneglycol (OEG) as a negative control, were injected over the chip surface. The association (kon) and dissociation (koff) rate constants and the resulting dissociation equilibrium constant (Kd=koff/kon) for each assessed compound were determined (see Table 1 hereunder).

The nature of series [1]: Critical micelle concentration (CMC), pyrene fluorescent probe. Type of series: physicochemical. The settings on record: in water. The procedure:
DiManinsatC24 was prepared according a procedure similar to that used for the preparation of TriDiManC24 except that: • pentacosanoic acid was replaced by 10,12-pentacosadiynoic acid, and • before the coupling with 10,12-pentacosadiynoic acid, the benzyl groups of compound 33 were replaced by acetyl group so as to provide compound 108 (as illustrated in FIG. 3E). ^1H NMR δ(ppm) (MeOD, 400 MHz) 4.87 (s, 3H), 4.73 (s, 3H), 3.64-3.50 (m, 14H), 3.46-3.20 (m, 76H), 2.97-2.93 (m, 6H), 2.33 (t, 6H, J=6.8 Hz), 2.09-1.96 (m, 6H), 1.08-1.05 (m, 32H), 0.66 (t, 3H, J=6.8 Hz). ^13C NMR δ (ppm) (MeOD, 100 MHz) 173.7, 168.8, 104.2, 101.2, 80.6, 80.4, 75.1, 74.7, 72.5, 72.2, 72.1, 71.9, 71.8, 71.7, 71.6, 71.4, 69.4, 69.1, 68.9, 68.7, 68.6, 68.0, 63.2, 63.1, 42.2, 37.0, 34.8, 33.7, 33.1, 30.8, 30.7, 30.6, 30.5, 30.4, 30.2, 29.5, 28.1, 27.0, 26.0, 23.7, 19.7, 14.4. […] The hydrodynamic diameters of micelles of glycolipids were measured in water using a Zetasizer Nano ZS system (Malvern Instruments). The CMCs were measured using pyrene as an extrinsic fluorescent probe and were carried out as described (Perino et al., 2011). […] Fluorescent emission of pyrene was measured at 25° C. using a Fluorolog spectrofluorometer (Jobin Yvon, Horiba). The intensities of fluorescence emission were determined at 374 nm (I374) and at 383 nm (I383), with an excitation at a 339 nm wavelength. […]

Another series deals with HIV-1 R5. In words: HIV-1 R5 trans-infection of MAGI-CCR5 cells mediated by DCs. Type of series: cell-based. How it is done: ManC1, […] (comparative) and compounds of the invention (ManC24, ManC17, TriManC24, TriDiManC24, TriManinsatC24 and ManinsatC24) were serially diluted in water. Human DCs (1×10^5 in 200 μl ) were pre-treated with different concentrations of compounds, or mannan (Sigma) or culture medium alone, in RPMI 1640 medium containing 10% FBS for 45 min at 37° C., prior infection with HIV-1 (100 ng of p24Gag) for 3 h. Excess free virus and molecules were removed by three washes. DCs were then cocultured with MAGI -CCR5 cells (1×10^5) at 37° C. plated in a 48-well plate. After two days, viral infection of MAGI-CCR5 cells was quantitated following beta-galactosidase assays and enumerating blue cells by light microscopy.
The IC50 were determined by serial dilution of each compound. The trans-infection assays were repeated a minimum of three times, and the IC50 determined using KaleidaGraph.
To investigate the ability of the compounds of the invention to inhibit HIV-1 trans infection, we chose to infect human DCs in order to best mimic in vivo conditions. Human DCs were exposed to different compounds (namely, Mannan (control), ManC1 (comparative), ManC11 (comparative), ManC17, ManC24, TriManC24, TriDiManC24, ManinsatC24 and TriManinsatC24) for 45 min at 37° C., before inoculation with HIV-1 (strains R5 and X4) for 3 hours. After extensive washings to remove unbound virions and mannosides, DCs were then co-cultured with MAGI-CCR5 cells. This procedure allows precise quantification of HIV-1 replication in reporter MAGI-CCR5 cells by detection of beta-galactosidase activity. These cells express an integrated copy of the HIV long terminal repeat (LTR) fused to the beta-galactosidase reporter gene, and express the CD4 receptor and the CCR5 and CXCR4 co-receptors, required for entry of HIV-1 R5 and X4 respectively. Upon viral entry leading to viral Tat expression and activation of the LTR, these cells permit quantification of HIV trans-infection after two days.

Take `CCCCCCCCCCCCCCCCCCCCCCCCC(=O)NC(COCCC(=O)NCCOCCOCCOCCOC1OC(CO)C(O)C(O)C1OC1OC(CO)C(O)C(O)C1O)(COCCC(=O)NCCOCCOCCOCCOC1OC(CO)C(O)C(O)C1OC1OC(CO)C(O)C(O)C1O)COCCC(=O)NCCOCCOCCOCCOC1OC(CO)C(O)C(O)C1OC1OC(CO)C(O)C(O)C1O` (centres unmarked) [TriDiManC24]: the “KD (μM)” value on DC-SIGN CRD is listed as “low micromolar range”; on DC-SIGN CRD (listed as TriDimanC24), “Sub-micromolar”. The compound further returned a Kd at DC-SIGN CRD of 3.25 µM. In addition, the “ability to form micelles (in words)” value in series [1] is “unable to form micelles; also recorded: failed to form micelles”. Also, the “residual level of trans-infection” value with HIV-1 R5 amounted to 40%.
